Calls of active or inactive are those of the source. The calls are words filed in the database; no cut-off is given here.
Columns and labels:
[1] = target: T1, Receptor tyrosine-protein kinase erbB-2 (Homo sapiens, UniProt P04626); experiment: Inhibition of ErbB2 by time resolved fluorescence assay
[2] = target: T2, Insulin-like growth factor 1 receptor (Homo sapiens, UniProt P08069); experiment: Inhibition of IGF1R by time resolved fluorescence assay
[3] = target: Epidermal growth factor receptor (Homo sapiens, UniProt P00533, L858R)
Chain of Epidermal growth factor receptor (Homo sapiens, UniProt P00533, L858R) (P00533 25-1210 L858R limits assumed): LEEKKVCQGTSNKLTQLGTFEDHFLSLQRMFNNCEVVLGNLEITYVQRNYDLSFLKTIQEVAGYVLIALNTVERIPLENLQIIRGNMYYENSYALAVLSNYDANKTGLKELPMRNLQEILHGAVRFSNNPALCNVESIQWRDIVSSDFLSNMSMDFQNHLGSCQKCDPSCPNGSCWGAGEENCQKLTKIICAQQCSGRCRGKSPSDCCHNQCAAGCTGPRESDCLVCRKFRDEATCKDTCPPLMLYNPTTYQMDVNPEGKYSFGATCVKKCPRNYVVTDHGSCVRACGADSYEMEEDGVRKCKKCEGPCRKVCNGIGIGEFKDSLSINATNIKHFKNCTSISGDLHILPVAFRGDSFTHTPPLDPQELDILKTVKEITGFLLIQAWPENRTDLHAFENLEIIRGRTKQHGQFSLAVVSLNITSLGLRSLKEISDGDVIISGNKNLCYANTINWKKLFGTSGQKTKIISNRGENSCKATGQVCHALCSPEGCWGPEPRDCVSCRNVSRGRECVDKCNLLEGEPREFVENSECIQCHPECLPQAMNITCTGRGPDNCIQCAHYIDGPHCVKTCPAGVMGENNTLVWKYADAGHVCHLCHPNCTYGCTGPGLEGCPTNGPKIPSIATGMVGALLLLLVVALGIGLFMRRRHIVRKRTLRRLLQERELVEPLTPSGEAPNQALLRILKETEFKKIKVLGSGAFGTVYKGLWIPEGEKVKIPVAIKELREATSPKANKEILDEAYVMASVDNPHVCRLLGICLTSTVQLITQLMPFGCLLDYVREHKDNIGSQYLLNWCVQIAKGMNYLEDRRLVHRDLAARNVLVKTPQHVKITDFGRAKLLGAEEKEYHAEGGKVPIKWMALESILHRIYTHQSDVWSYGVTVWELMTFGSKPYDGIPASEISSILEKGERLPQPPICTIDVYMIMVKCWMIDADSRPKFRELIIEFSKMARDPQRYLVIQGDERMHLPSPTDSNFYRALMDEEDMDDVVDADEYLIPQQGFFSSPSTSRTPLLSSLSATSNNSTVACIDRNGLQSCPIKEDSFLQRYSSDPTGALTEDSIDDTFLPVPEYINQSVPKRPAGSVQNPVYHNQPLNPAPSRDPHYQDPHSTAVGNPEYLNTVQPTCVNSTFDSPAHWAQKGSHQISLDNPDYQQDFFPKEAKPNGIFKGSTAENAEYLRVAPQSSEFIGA

[4] = target: Epidermal growth factor receptor (Homo sapiens, UniProt P00533); experiment: Inhibition of EGFR phosphorylation in IGF1 and EGF-stimulated human MiaPaCa2 cells pretreated for 6 hrs before IGF1 and EGF stimulation by ELISA; type: cell-based
Chain of Epidermal growth factor receptor (Homo sapiens, UniProt P00533) (P00533 whole entry): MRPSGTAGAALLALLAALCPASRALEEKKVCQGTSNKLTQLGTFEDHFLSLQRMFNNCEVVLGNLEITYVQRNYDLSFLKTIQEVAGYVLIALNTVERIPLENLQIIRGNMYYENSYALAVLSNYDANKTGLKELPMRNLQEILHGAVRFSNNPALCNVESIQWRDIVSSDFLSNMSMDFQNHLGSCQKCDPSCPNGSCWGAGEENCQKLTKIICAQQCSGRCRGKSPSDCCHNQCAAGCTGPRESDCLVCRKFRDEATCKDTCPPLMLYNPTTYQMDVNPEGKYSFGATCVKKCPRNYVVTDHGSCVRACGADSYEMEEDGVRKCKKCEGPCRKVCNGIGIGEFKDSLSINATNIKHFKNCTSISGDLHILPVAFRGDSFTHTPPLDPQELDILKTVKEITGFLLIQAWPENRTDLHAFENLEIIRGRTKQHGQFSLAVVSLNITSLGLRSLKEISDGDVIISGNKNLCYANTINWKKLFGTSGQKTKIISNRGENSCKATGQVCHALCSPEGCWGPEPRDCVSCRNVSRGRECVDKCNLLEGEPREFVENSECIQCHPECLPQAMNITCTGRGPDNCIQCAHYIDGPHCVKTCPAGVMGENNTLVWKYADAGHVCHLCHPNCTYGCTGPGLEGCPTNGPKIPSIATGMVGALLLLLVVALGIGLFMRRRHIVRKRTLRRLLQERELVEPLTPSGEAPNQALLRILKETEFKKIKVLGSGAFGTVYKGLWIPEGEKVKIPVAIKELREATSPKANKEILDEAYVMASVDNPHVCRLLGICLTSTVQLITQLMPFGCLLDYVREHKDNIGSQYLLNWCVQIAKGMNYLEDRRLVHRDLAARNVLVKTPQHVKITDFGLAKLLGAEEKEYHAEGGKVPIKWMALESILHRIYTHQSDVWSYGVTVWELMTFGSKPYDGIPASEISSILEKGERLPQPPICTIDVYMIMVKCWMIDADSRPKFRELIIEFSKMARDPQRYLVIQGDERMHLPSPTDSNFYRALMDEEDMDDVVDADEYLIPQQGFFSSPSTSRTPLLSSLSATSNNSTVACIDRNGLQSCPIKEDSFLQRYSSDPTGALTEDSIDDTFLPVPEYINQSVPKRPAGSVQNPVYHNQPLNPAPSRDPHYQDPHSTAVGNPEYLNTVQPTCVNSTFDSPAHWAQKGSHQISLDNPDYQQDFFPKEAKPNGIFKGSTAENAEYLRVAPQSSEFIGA

[5] = target: T1, Receptor tyrosine-protein kinase erbB-2; experiment: Inhibition of ErbB2 phosphorylation in IGF1 and EGF-stimulated human N87 cells pretreated for 6 hrs before IGF1 and EGF stimulation by ELISA; type: cell-based, NCI-N87
[6] = target: T2, Insulin-like growth factor 1 receptor; experiment: Inhibition of IGF1R phosphorylation in IGF1 and EGF-stimulated human MiaPaCa2 cells pretreated for 6 hrs before IGF1 and EGF stimulation by ELISA; type: cell-based
Mus musculus [7] = experiment: Inhibition of EGFR phosphorylation in IGF1 and EGF-stimulated mouse liver at 50 mg/kg, po pretreated 4 hrs before IGF1 and EGF stimulation; type: functional, organism-based; set-up: dose 50 mg/kg
[8] = Oral bioavailability in mouse; type: ADME, organism-based; details: in vivo
[9] = Aqueous solubility at pH 7.2; type: physicochemical; details: buffer
Mus musculus [10] = experiment: Inhibition of IGF1R phosphorylation in IGF1 and EGF-stimulated mouse lung at 50 mg/kg, po pretreated 4 hrs before IGF1 and EGF stimulation; type: functional, organism-based; set-up: dose 50 mg/kg
Mus musculus [11] = experiment: Inhibition of IGF1R phosphorylation in IGF1 and EGF-stimulated mouse lung at 50 mg/kg, ip pretreated 4 hrs before IGF1 and EGF stimulation; type: functional, organism-based; set-up: dose 50 mg/kg
Mus musculus [12] = experiment: Dose normalized AUC in po dosed mouse; type: ADME, organism-based; details: in vivo
[13] = Half life in mouse; type: ADME, organism-based; details: in vivo
Cytochrome P450 2D6 = Cytochrome P450 2D6 (Homo sapiens, UniProt P10635); experiment: Inhibition of human CYP2D6; type: ADME
Mus musculus [14] = experiment: Dose normalized AUC in iv dosed mouse; type: ADME, organism-based; details: in vivo
Cytochrome P450 2C9 = Cytochrome P450 2C9 (Homo sapiens, UniProt P11712); experiment: Inhibition of human CYP2C9; type: ADME
[15] = Protein binding in human plasma; type: ADME, cell-free; details: read-out: PPB (converted)
Mus musculus [16] = experiment: Dose normalized AUC in ip dosed mouse; type: ADME, organism-based; details: in vivo
Cytochrome P450 3A4 = Cytochrome P450 3A4 (Homo sapiens, UniProt P08684); experiment: Inhibition of human CYP3A4; type: ADME
[17] = Bioavailability in ip dosed mouse; type: ADME, organism-based; details: in vivo
Mus musculus [18] = experiment: Inhibition of EGFR phosphorylation in IGF1 and EGF-stimulated mouse liver at 50 mg/kg, ip pretreated 4 hrs before IGF1 and EGF stimulation; type: functional, organism-based; set-up: dose 50 mg/kg
[19] = Clearance in mouse; type: ADME, organism-based; details: in vivo

T1 sequence (P04626 whole entry): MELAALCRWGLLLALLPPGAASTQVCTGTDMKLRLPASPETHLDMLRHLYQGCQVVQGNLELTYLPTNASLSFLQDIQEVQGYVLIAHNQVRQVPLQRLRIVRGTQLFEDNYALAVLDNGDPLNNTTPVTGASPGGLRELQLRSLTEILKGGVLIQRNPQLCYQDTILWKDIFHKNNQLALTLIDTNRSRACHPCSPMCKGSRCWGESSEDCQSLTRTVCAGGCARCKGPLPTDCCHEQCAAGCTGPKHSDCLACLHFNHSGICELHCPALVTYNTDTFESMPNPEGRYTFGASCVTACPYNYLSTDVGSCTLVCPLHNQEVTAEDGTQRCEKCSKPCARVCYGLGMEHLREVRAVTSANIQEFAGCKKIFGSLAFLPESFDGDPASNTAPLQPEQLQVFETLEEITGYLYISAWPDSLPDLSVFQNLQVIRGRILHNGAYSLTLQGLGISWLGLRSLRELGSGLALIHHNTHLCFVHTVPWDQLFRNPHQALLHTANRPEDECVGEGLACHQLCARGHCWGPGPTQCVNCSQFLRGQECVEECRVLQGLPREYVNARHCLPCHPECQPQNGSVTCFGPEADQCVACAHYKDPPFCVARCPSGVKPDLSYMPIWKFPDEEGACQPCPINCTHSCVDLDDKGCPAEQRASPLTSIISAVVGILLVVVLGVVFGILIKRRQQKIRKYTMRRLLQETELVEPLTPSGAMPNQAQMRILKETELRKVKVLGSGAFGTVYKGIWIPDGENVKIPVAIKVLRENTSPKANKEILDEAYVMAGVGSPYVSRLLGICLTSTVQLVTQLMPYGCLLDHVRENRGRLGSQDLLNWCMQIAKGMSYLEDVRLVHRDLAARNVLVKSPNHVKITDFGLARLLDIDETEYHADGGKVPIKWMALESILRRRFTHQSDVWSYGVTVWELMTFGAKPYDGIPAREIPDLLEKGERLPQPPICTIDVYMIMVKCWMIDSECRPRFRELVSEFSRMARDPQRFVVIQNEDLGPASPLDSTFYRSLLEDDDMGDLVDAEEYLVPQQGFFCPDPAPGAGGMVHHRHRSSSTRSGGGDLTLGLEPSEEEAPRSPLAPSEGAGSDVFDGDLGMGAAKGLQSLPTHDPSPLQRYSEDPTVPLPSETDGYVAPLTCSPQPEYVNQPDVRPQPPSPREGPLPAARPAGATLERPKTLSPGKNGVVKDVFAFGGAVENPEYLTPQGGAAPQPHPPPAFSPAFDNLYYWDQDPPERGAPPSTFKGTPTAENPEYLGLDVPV
T2 sequence (P08069 31-736 limits assumed): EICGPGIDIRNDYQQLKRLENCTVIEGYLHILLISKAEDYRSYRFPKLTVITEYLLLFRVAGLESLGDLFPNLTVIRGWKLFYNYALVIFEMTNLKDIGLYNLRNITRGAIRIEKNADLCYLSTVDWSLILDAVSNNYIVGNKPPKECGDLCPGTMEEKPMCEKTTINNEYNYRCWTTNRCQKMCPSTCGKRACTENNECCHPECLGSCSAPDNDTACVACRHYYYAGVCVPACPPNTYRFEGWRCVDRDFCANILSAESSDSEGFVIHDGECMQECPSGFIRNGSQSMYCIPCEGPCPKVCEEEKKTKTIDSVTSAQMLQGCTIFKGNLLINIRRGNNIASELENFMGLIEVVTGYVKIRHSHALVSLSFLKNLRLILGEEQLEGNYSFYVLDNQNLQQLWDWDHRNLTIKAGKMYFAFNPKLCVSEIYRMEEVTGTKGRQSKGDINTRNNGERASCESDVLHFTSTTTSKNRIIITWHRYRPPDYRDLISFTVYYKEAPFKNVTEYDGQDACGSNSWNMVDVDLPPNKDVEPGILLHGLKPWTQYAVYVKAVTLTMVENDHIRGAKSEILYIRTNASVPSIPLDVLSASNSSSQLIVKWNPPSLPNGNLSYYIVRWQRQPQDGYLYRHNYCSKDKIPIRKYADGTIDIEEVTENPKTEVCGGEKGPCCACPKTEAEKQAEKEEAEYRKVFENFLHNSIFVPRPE
T2 sequence (P08069 741-1367 limits assumed): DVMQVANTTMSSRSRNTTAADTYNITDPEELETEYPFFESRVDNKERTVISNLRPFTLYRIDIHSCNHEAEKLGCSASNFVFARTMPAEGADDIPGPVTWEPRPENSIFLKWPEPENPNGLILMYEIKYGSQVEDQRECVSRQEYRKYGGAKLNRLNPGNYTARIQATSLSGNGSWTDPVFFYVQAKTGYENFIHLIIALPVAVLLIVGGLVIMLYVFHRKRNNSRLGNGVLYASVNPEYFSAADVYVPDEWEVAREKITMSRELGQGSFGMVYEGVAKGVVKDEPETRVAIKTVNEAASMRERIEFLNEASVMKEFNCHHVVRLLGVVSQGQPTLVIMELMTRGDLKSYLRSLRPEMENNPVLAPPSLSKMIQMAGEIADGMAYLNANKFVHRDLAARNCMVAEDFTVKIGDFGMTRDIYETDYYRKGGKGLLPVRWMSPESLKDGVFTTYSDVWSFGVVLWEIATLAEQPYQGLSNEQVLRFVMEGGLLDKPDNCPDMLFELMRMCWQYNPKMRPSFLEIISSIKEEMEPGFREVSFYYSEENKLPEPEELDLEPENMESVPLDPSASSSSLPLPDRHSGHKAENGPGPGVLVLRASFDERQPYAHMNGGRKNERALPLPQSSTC

IC50 [1] [nM] | IC50 [2] [nM] | IC50 [3] [nM] | EC50 [4] [nM] | EC50 [5] [nM] | EC50 [6] [nM] | SMILES | also measured
59 | 27 | 130 | 742 | 660 | 143 | COc1ccccc1Cc1nc2ccc(-c3nn([C@H]4CC[C@H](N5CCN(C(C)=O)CC5)CC4)c4ncnc(N)c34)cc2[nH]1 | 
270 | 309 | 30 | 520 | 1600 | 247 | CCOC(=O)N1CCN([C@H]2CC[C@H](n3nc(-c4ccc5nc(Cc6ccccc6OC)[nH]c5c4)c4c(N)ncnc43)CC2)CC1 | 
17 | 69 | 25 | 808 | 1580 | 208 | COc1ccccc1Cc1nc2ccc(-c3nn([C@H]4CC[C@H](N5CCN(C(=O)N(C)C)CC5)CC4)c4ncnc(N)c34)cc2[nH]1 | 
54 | 81 | 58 | 85 | 94 | 115 | COCCCN1CCN([C@H]2CC[C@H](n3nc(-c4ccc5nc(Cc6ccccc6OC)[nH]c5c4)c4c(N)ncnc43)CC2)CC1 | inhibition (Mus musculus [7]): Active; bioavailability [8]: 12%; solubility [9]: > 30 µM; inhibition (Mus musculus [10]): Active; inhibition (Mus musculus [11]): Active; AUC (Mus musculus [12]): 0.42 µmol·h/L/mg/kg; half-life [13]: 3.1 h; IC50 (Cytochrome P450 2D6): 1600 nM; AUC (Mus musculus [14]): 3.5 µmol·h/L/mg/kg; IC50 (Cytochrome P450 2C9): > 20000 nM; fraction unbound [15]: 0.033; AUC (Mus musculus [16]): 2.71 µmol·h/L/mg/kg; IC50 (Cytochrome P450 3A4): > 20000 nM; bioavailability [17]: 100%; inhibition (Mus musculus [18]): Active; clearance [19]: 7.83 mL/min/kg

Continued, molecule first:

SMILES | IC50 [1] [nM] | IC50 [2] [nM] | IC50 [3] [nM] | EC50 [4] [nM] | EC50 [5] [nM] | EC50 [6] [nM] | also measured
Nc1ncnc2c1c(-c1ccc3nc(Cc4ccccc4Cl)[nH]c3c1)nn2[C@H]1CC[C@H](N2CCOCC2)CC1 | 664 | 36 | 65 |  |  |  | 
COc1ccccc1Cc1nc2ccc(-c3nn([C@H]4CC[C@H](N5CCOCC5)CC4)c4ncnc(N)c34)cc2[nH]1 | 53 |  |  |  |  |  | 
Nc1ncnc2c1c(-c1ccc3nc(Cc4ccccc4)[nH]c3c1)nn2[C@H]1CC[C@H](N2CCOCC2)CC1 | 186 |  | 270 |  |  |  | 
COc1ccccc1Cc1nc2ccc(-c3nn([C@H]4CC[C@H](N5CCNCC5)CC4)c4ncnc(N)c34)cc2[nH]1 | 44 | 26 | 30 | 335 | 210 | 711 | 
COc1ccccc1Cc1nc2ccc(-c3nn([C@H]4CC[C@H](N5CCN(CC6CC6)CC5)CC4)c4ncnc(N)c34)cc2[nH]1 | 13 | 40 | 3 | 91 | 147 | 190 | 
Nc1ncnc2c1c(-c1ccc3nc(Cc4cccs4)[nH]c3c1)nn2[C@H]1CC[C@H](N2CCOCC2)CC1 | 250 | 25 | 361 |  |  |  | 

— ChEMBL document CHEMBL1153290, “Development of multitargeted inhibitors of both the insulin-like growth factor receptor (IGF-IR) and members of the epidermal growth factor family of receptor tyrosine kinases” (Bioorg Med Chem Lett, 2009)
